Test results published in PubChem BioAssay (NCI).
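Dose response: 5 concentrations. Exposure: 48 h. Format: 96-well plates. Endpoint: linear interpolation; highest concentration if not reached. GI50 = concentration required for 50% inhibition of growth. Definition used: TGI = concentration required for complete inhibition of growth.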

Tests used:
Test in all cases: growth of human tumour cells (NCI), 48 h
[1] = test system: SK-OV-3 ovarian
[2] = test system: HCT-116 colon
[3] = test system: UACC-257 melanoma
[4] = test system: OVCAR-8 ovarian
[5] = test system: RPMI-8226 leukemia
[6] = test system: SF-268 CNS
[7] = test system: A549 NSCLC
[8] = test system: MALME-3M melanoma
[9] = test system: HCT-15 colon
[10] = test system: A498 renal

Structure (SMILES)	TGI [1] [µM]	TGI [2] [µM]	TGI [3] [µM]	TGI [4] [µM]	TGI [5] [µM]	TGI [6] [µM]	TGI [7] [µM]	TGI [8] [µM]	GI50 [1] [µM]	GI50 [2] [µM]	GI50 [3] [µM]	GI50 [9] [µM]	TGI [9] [µM]	GI50 [4] [µM]	GI50 [10] [µM]	TGI [10] [µM]	GI50 [5] [µM]	GI50 [6] [µM]	GI50 [7] [µM]	GI50 [8] [µM]
COc1ccc(CCc2cc(OC)c(O)c(OC)c2)cc1	> 100	> 100	91.6	> 100	> 100	> 100	> 100	> 100												
COc1ccc(OC)c(/C=C/c2nc(SCc3ccccc3)n(-c3ccc(Cl)cc3)n2)c1	> 100	> 100	> 100	> 100	> 100	> 100	> 100		8.21	4.04	> 100	5.01	> 100	9.36	4.54	88.4	7.39	8.39	6.79	
C1C[OH+]CC[OH+]CCNCC[OH+]CC[OH+]CCN1.Cl.[Cl-].[Pt+4]	> 100	> 100		> 100	> 100	> 100	> 100		> 100	> 100		> 100	> 100	> 100	> 100	> 100	> 100	> 100	> 100	
COc1ccc2c(c1OC(C)=O)C1=CC(=O)CCC13CCNC3C2 (stereo not drawn)	> 100	> 100	> 100	> 100	> 100	> 100	> 100	> 100					> 100							
C[Si](C)(C)C(Sc1ccccc1)(Sc1ccccc1)Sc1ccccc1	> 100	> 100	> 100	> 100	> 100	> 100	> 100						> 100			> 100				
COc1ccc2c(c1)C(=O)c1c-2c(Nc2cccc(C(C)=O)c2)nc2ccccc12		10.9	61.7	34.7	70.7	> 100	40.5	48.3		2.64	23.9	24	> 100	14.5	3.09	15	17.5	36.5	17.7	18
[CH3][Sn]([CH3])([CH3])[O][N+](=O)[O-]	> 10	> 10	> 10	> 10	> 10	> 10	> 10		> 10	2.9	6.81	2	4.13	3.6			4.98	3.63	> 10	
CCOC(=O)c1cccnc1C(OC(C)=O)OC(C)=O	> 100	> 100	> 100	> 100		> 100	> 100	> 100					> 100			> 100				
